Measured values taken from article PMC12147355, “Targeted destruction of follicle stimulating hormone receptor-positive cancer cells in vitro and in vivo by a lytic peptide Phor21-FSHβ conjugate” (Molecular Medicine, 2025).
Where two headings read alike, the source gives them in different places. Ends that are not written are not given here.

Columns and labels:
HEK-293 xenografts = experiment: HEK-293 (FSHR-negative) cell xenografts in athymic nude male mice; format: in vivo; conditions: 8 mg/kg/72 h, 21 days, n = 8–12
Excerpt: (§1) All the mouse experiments were approved by the local ethics committee of the Medical University of Bialystok, Poland. Athymic nude males (Crl: NU(NCr)-Foxn1^nu, 8–10 weeks old, 20–23 g) purchased from Charles River Laboratories International, Inc. (Sulzfeld, Germany; RRID: SCR_003792) were housed two or three per cage and provided with sterilized pellet chow and water. The animals were maintained in a pathogen-free mouse colony at the Center of Experimental Medicine Animal Facility (Bialystok, Poland).
(§2) HEK293-FSHR, HEK-293, and LNCaP cells were treated with trypsin when they were nearly confluent and were harvested. The cells were centrifuged at 1100 rpm for 5 min and resuspended in sterile non-supplemented culture medium mixed 1:1 with the Matrigel® matrix (Corning, Corning, USA). The cell suspension (1 × 10^6 cells/0.2 ml - HEK293-FSHR and HEK-293 cells; 5 × 10^6 cells/0.2 ml – LNCaP cells) was injected subcutaneously into the interscapulum area. When the xenograft volume reached 150–200 mm^3 (5–8 days after implantation), the xenograft-bearing mice were randomly divided into treatment groups, as described in Suppl Table 2.
(§3) Three independent xenograft experiments were conducted. In the first set, we tested whether the Phor21-FSHβ33–53 C/S conjugate selectively targeted and destroyed FSHR-expressing HEK293-FSHR cells, using a proof-of-concept experiment. […]

LNCaP xenografts = experiment: LNCaP cell xenografts in athymic nude male mice; format: in vivo; conditions: Phor21 8 mg/kg/72 h, Phor21-FSHβ 2 or 8 mg, 21 days; for growth of LNCaP xenografts (total xenograft volume at necropsy): CTX 5 mg/kg/48h, n = 10–12
Excerpt: as §1, §2
Three independent xenograft experiments were conducted. In the first set, we tested whether the Phor21-FSHβ33–53 C/S conjugate selectively targeted and destroyed FSHR-expressing HEK293-FSHR cells, using a proof-of-concept experiment. CTX was used to inhibit FSH secretion, which competed with Phor21-FSHβ33–53 C/S for FSHR-binding sites (Suppl Table 2). In the second set of experiments, we tested the specificity of the Phor21-FSHβ33–53 C/S conjugate using FSHR-negative HEK293 cells xenografted into nude mice (Suppl Table 2). Finally, in the third set of in vivo experiments, we tested whether Phor21-FSHβ33–53 C/S conjugate treatment could inhibit the growth of human prostate cancer LNCaP cell xenografts (FSHR-negative cells) by destroying FSHR-positive endothelial cells in xenograft tissues, as reported previously (Radu et al. [2010]) (Suppl Table 2). Phor21-FSHβ33–53 C/S was later on addressed as Phor21-FSHβ. […]

[1] = mouse, in vivo
Protocol: (§6) In each experimental set, the mice were sacrificed 3 days after the last injection. Total blood was collected via heart puncture under isoflurane anesthesia. The animals were euthanized by cervical dislocation. Body weight, selected organs, xenograft weights/volumes, and sizes were recorded at the time of necropsy. The xenografts and testes were fixed in 10% neutral buffered formalin or snap-frozen in liquid nitrogen for further experiments.

[2] = Body and organ weights at necropsy; conditions: nude males xenografted with HEK293-FSHR cells, Fig. S4
Protocol: as §6

HEK293-FSHR xenografts = experiment: HEK293-FSHR cell xenografts in athymic nude male mice; format: in vivo
Excerpt: as §1, §2, §3

FSH = experiment: Plasma FSH immunofluorometric assay in xenografted mice; format: in vivo; conditions: CTX 5 mg/kg/48h
Protocol: The plasma levels of FSH were analyzed via an immunofluorometric assay using the Delfia Enhancer system (PerkinElmer, Turku, Finland) according to the protocol described by van Casteren et al. (Casteren et al. [2000]). The FSH assay sensitivity was 0.1 µg/L, with an intra-assay CV of 4.3% and an interassay CV of 9.8% at 4.8 µg/L. The rat FSH standard (a gift from Dr. Albert Parlow from the National Institute of Diabetes and Digestive and Kidney Diseases, Bethesda, Maryland, USA) was diluted in Diluent II buffer (DELFIA Diluent II, PerkinElmer) to concentrations ranging from 50 ng/ml to 0.02 ng/ml for rat FSH. Enhanced fluorescence signals (DELFIA Enhancement Solution; PerkinElmer) were measured using a Victor^2 fluorometer (PerkinElmer).

[3] = Serum biochemical assay (Fuji Dri-Chem NX500); format: in vivo; conditions: HEK293-FSHR xenograft mice (n=8-9); Fig S7
Protocol: To quantify the serum levels of glucose, γ-glutamyltransferase (GGT), alanine aminotransferase (ALT) and aspartate aminotransferase (AST), biochemical assays were performed using Fuji Dri-Chem NX500 (Fujifilm Corporation®) according to the manufacturer’s instructions (Lei et al. [2021]).

HEK-293 cells [4] = experiment: CyQUANT cell proliferation assay, HEK-293 cells; format: cell-based, human; conditions: CTX 1, 5, 10, or 20 µM, 48 h; three independent experiments (n = 8/experiment)
Protocol: (§4) Cell proliferation was determined using a CyQUANT Cell Proliferation Assay (C7026, Life Technologies, Thermo Fisher Scientific). Prior to the experiments, HEK-293, HEK293-FSHR, and LNCaP cells were seeded in 96-well plates (7000 cells/well). After overnight incubation in the culture medium, the cells were starved for 4 h in basal non-supplemented DMEM/F12. […] After incubation, the medium was removed, and the plates with cells were frozen at −80 °C overnight. After thawing at room temperature (RT), 200 µl of CyQUANT GR dye/cell lysis buffer was added to each well and incubated for 5 min at room temperature (RT) in the dark. The fluorescence was read using a WALLAC Victor 2 1420 spectrophotometer (Perkin Elmer, Waltham, Massachusetts, USA) with ~ 480 nm excitation and ~ 520 nm emission maxima. The results were subtracted from a standard curve made from bacteriophage λ DNA (ranging from 50 pg/ml to 1.0 µg/ml) in CyQUANT GR/cell lysis buffer and are presented as absolute values.

HEK293-FSHR cells [5] = experiment: CyQUANT cell proliferation assay, HEK293-FSHR cells; format: cell-based, human; conditions: CTX 1, 5, 10, or 20 µM, 48 h; three independent experiments (n = 8/experiment)
Protocol: Cell proliferation was determined using a CyQUANT Cell Proliferation Assay (C7026, Life Technologies, Thermo Fisher Scientific). […] After overnight incubation in the culture medium, the cells were starved for 4 h in basal non-supplemented DMEM/F12. The cells were then treated for 48 h with rhFSH (10, 100, or 1000 IU/L) or cetrorelix (CTX) (1, 5, 10, or 20 µM; Sigma-Aldrich), and 2.5% FSC was used as a positive control. After incubation, the medium was removed, and the plates with cells were frozen at −80 °C overnight. After thawing at room temperature (RT), 200 µl of CyQUANT GR dye/cell lysis buffer was added to each well and incubated for 5 min at room temperature (RT) in the dark. The fluorescence was read using a WALLAC Victor 2 1420 spectrophotometer (Perkin Elmer, Waltham, Massachusetts, USA) with ~ 480 nm excitation and ~ 520 nm emission maxima.

LNCaP cells [6] = experiment: CyQUANT cell proliferation assay, LNCaP cells; format: cell-based, human; conditions: CTX 1, 5, 10, or 20 µM, 48 h; three independent experiments (n = 8/experiment)
Protocol: as §4

HEK-293 cells [7] = experiment: Caspase Glo 3/7 apoptosis assay, HEK-293 cells; format: cell-based, human; conditions: CTX 20 µM, 12 h
Protocol: (§5) Caspase 3/7 activity was assessed using a Caspase Glo 3/7 kit (Promega) according to the manufacturer’s protocol. In brief, cells were seeded at 10,000/well in a 96-well plate, attached overnight, and treated with vehicle (CTR) or CTX (20 µM) for 12 h. Staurosporin (STS, 0.5 µM) was used as a positive inducer of caspase3/7-mediated apoptosis. The absolute luminescence was normalized to the vehicle-treated control value.

HEK293-FSHR cells [8] = experiment: Caspase Glo 3/7 apoptosis assay, HEK293-FSHR cells; format: cell-based, human; conditions: CTX 20 µM, 12 h
Protocol: as §5

LNCaP cells [9] = experiment: Caspase Glo 3/7 apoptosis assay, LNCaP cells; format: cell-based, human; conditions: CTX 20 µM, 12 h
Protocol: as §5

Row | Substance | growth of HEK-293 xenografts (total xenograft volume at necropsy) (HEK-293 xenografts) | histology of LNCaP xenografts (LNCaP xenografts) | growth of LNCaP xenografts (total xenograft volume at necropsy) (LNCaP xenografts) | spleen weight / size [1] | body weight [2] | testis weight [2] | histopathological analysis of xenograft tissues (HEK293-FSHR xenografts; histology, PARP1 staining) | xenograft growth compared with the control group (total xenograft volume at necropsy) (HEK293-FSHR xenografts; nude male mice, Phor21 8 mg/kg/72 h, Phor21-FSHβ 2 or 8 mg/kg/72 h, CTX 5 mg/kg/48h, 21 days, n = 10–12) | FSH secretion (plasma FSH levels) (FSH; mice with HEK293-FSHR xenografts) | FSH secretion (plasma FSH levels) (FSH; mice with LNCaP xenografts) | serum ALT vs CTR group [3] | serum AST vs CTR group [3] | serum GGT vs CTR group [3] | proliferation of HEK-293 cells (HEK-293 cells [4]) | proliferation of HEK293-FSHR cells (HEK293-FSHR cells [5]) | proliferation of LNCaP cells (LNCaP cells [6]) | caspase 3/7 activity in HEK-293 cells (HEK-293 cells [7]) | caspase 3/7 activity in HEK293-FSHR cells (HEK293-FSHR cells [8]) | caspase 3/7 activity in LNCaP cells (LNCaP cells [9]) | spleen weight / size [2]
1 | KFAKFAKKFAKFAKKFAKFAK-NH2 [Phor21, lytic peptide Phor21 backbone, triple heptade KFAKFAK] | did not affect the growth | no changes | no changes | No significant differences | No significant differences | No significant differences | – | – | – | – | – | – | – | – | – | – | – | – | – | –
2 | cetrorelix [CTX] | – | – | inhibited xenograft growth | – | – | significantly reduced | apoptosis | reduced xenograft growth | significantly decreased | inhibited FSH secretion | did not affect | did not affect | did not affect | dose-dependently decreased | dose-dependently decreased | dose-dependently decreased | activated | activated | activated | increased
